Test results as given in patent publication US20220235057A1, “CYCLIC FORMYL AND CYCLIC KETONE COMPOUNDS, PREPARATION METHOD THEREFOR, AND PHARMACEUTICAL USE” (priority 2019, published 2022).

Columns and labels:
Type in all cases: cell-based
Usutu virus (USUV) = assay: anti-Usutu virus activity (inhibition rate); details: for inhibition at 11 µM / inhibition at 33 µM: Usutu virus
Zika virus (ZIKV) = assay: anti-Zika virus activity (inhibition rate)
[1] = system: drug resistant strains of Acinetobacter baumannii; assay: anti-drug resistant strains of Acinetobacter baumannii (inhibition zone)
[2] = Zika virus, Drug concentration 11 μM
[3] = resistant strain of Acinetobacter baumannii no. 16
[4] = resistant strain of Acinetobacter baumannii no. 17
[5] = resistant strain of Acinetobacter baumannii no. 18
[6] = resistant strain of Acinetobacter baumannii no. 19
[7] = resistant strain of Acinetobacter baumannii no. 20

Row | Structure (SMILES) | inhibition at 11 µM (Usutu virus (USUV); Drug concentration 11 μM) | inhibition at 33 µM (Usutu virus (USUV); Drug concentration 33 μM) | inhibition at 11 µM (Zika virus (ZIKV); [2]) | inhibition at 33 µM (Zika virus (ZIKV); Zika virus, Drug concentration 33 μM) | Anti-USUV activity (inhibition rate) (Usutu virus (USUV); Drug concentration 11 μM) | Anti-USUV activity (inhibition rate) (Usutu virus (USUV); Drug concentration 33 μM) | Anti-ZIKV activity (inhibition rate) (Zika virus (ZIKV); Drug concentration 11 μM) | Anti-ZIKV activity (inhibition rate) (Zika virus (ZIKV); Drug concentration 33 μM) | inhibition zone, diameter [1, 3] | inhibition zone, diameter [1, 4] | inhibition zone, diameter [1, 5] | inhibition zone, diameter [1, 6] | inhibition zone, diameter [1, 7]
1 | O=C1[C@@H]2CCc3ccccc3N2[C@@H](c2ccc(O)cc2)N1c1ccc([N+](=O)[O-])cc1 [ZXD-121] | < 0% | < 0% | > 100% |  |  |  |  |  |  |  |  |  | 
2 | O=C(NN1C(=O)[C@@H]2Cc3ccccc3N2[C@H]1c1ccc([N+](=O)[O-])cc1)c1ccc([N+](=O)[O-])cc1 [ZDL-11] | < 0% | 0 to 100% | < 0% | < 0% |  |  |  |  |  |  |  |  | 
3 | O=C1C2CCc3ccccc3N2[C@@H](c2cccc3nonc23)N1Nc1ccccc1 (stereo partly shown) [ZXD-181A] |  |  |  |  | − (−: Inactive) | + (+: Partial suppression) | +++ (+++: Complete suppression) | +++ (+++: Complete suppression) |  |  |  |  | 
4 | O=C1[C@@H]2Cc3ccccc3CN2C(c2ccc(O)cc2)N1c1ccc([N+](=O)[O-])cc1 (stereo partly shown) [ZSD-7] |  |  |  |  | − (−: Inactive) | +++ (+++: Complete suppression) | − (−: Inactive) | +++ (+++: Complete suppression) |  |  |  |  | 
5 | O=C(NNc1ccccc1)C1CCc2ccccc2N1C(=O)OCc1ccccc1 (stereo not shown) [ZXD-51] |  |  |  |  | − (−: Inactive) | − (−: Inactive) | − (−: Inactive) | + (+: Partial suppression) |  |  |  |  | 
6 | COc1cc(CC2N(Nc3ccccc3)C(=O)C3CCCCN32)ccc1O (single isomer, unassigned) [ZKD-14A] |  |  |  |  |  |  |  |  | 68 mm | 68 mm | 45 mm | 64 mm | 68 mm
7 | COc1ccc(C2N(Nc3ccccc3)C(=O)C3CCCCN32)cc1OC (stereo not shown) [ZKD-6A] |  |  |  |  |  |  |  |  | 45 mm | 43 mm | 20 mm | 25 mm | 64 mm
8 | CC1(C)OB(c2ccc([C@@H]3N(Nc4ccccc4)C(=O)C4CCCCN43)cc2)OC1(C)C (stereo partly shown) [ZKD-15A] |  |  |  |  |  |  |  |  | 46 mm | 50 mm | 40 mm | 68 mm | 68 mm
9 | COc1ccc(CC2N(Nc3ccccc3)C(=O)C3CCCCN32)cc1OC (single isomer, unassigned) [ZKD-13A] |  |  |  |  |  |  |  |  | 68 mm | 68 mm | 68 mm | 64 mm | 68 mm
10 | O=C1C2CCc3ccccc3N2C(c2ccc(CO)cc2)N1Nc1ccccc1 (stereo not shown) [ZXD-157B] | > 100% |  |  |  |  |  |  |  |  |  |  |  | 
11 | O=C1C2CCCCN2[C@@H](c2ccco2)N1Nc1ccccc1 (stereo partly shown) [ZKD-5B] |  |  |  |  |  |  |  |  | 68 mm | 48 mm | 48 mm | 55 mm | 68 mm
12 | COc1ccc(CC2N(Nc3ccccc3)C(=O)C3CCCCN32)cc1OC (single isomer, unassigned) [ZKD-13B] |  |  |  |  |  |  |  |  | 68 mm | 68 mm | 36 mm | 64 mm | 68 mm
13 | O=C(NNc1ccc(F)cc1)c1ccc2cc[nH]c2c1 [ZBM-24] |  |  |  |  |  |  |  |  | 38 mm | 68 mm | 6 mm | 50 mm | 68 mm
14 | CC1(C)OB(c2ccc([C@H]3N(Nc4ccccc4)C(=O)C4CCCCN43)cc2)OC1(C)C (stereo partly shown) [ZKD-15B] |  |  |  |  |  |  |  |  | 67 mm | 68 mm | 40 mm | 68 mm | 68 mm
15 | COc1cc(C2N(Nc3ccccc3)C(=O)C3CCCCN32)ccc1O (stereo not shown) [ZKD-18B] |  |  |  |  |  |  |  |  | 68 mm | 68 mm | 68 mm | 68 mm | 68 mm
16 | O=C(NNc1ccc(F)cc1)C1CCc2ccccc2N1 (stereo not shown) [ZXD-F] |  |  |  |  |  |  |  |  | 65 mm | 68 mm | 68 mm | 68 mm | 68 mm
17 | COc1ccc([C@@H]2N(Nc3ccccc3)C(=O)C3CCCCN32)cc1O (stereo partly shown) [ZKD-19A] |  |  |  |  |  |  |  |  | 68 mm | 68 mm | 68 mm | 68 mm | 68 mm
18 | Cn1cnc(C(=O)NNc2ccc(F)cc2)c1 [ZBM-29] |  |  |  |  |  |  |  |  | 51 mm | 68 mm | 48 mm | 68 mm | 68 mm
19 | COc1ccc(CC2N(Nc3ccccc3)C(=O)C3CCCCN32)cc1O (single isomer, unassigned) [ZKD-12B] |  |  |  |  |  |  |  |  | 68 mm | 68 mm | 55 mm | 60 mm | 68 mm

Row | Structure (SMILES) | inhibition at 11 µM (Usutu virus (USUV); Drug concentration 11 μM) | inhibition at 33 µM (Usutu virus (USUV); Drug concentration 33 μM) | inhibition at 11 µM (Zika virus (ZIKV); [2]) | inhibition at 33 µM (Zika virus (ZIKV); Zika virus, Drug concentration 33 μM) | Anti-USUV activity (inhibition rate) (Usutu virus (USUV); Drug concentration 11 μM) | Anti-USUV activity (inhibition rate) (Usutu virus (USUV); Drug concentration 33 μM) | Anti-ZIKV activity (inhibition rate) (Zika virus (ZIKV); Drug concentration 11 μM) | Anti-ZIKV activity (inhibition rate) (Zika virus (ZIKV); Drug concentration 33 μM) | inhibition zone, diameter [1, 3] | inhibition zone, diameter [1, 4] | inhibition zone, diameter [1, 5] | inhibition zone, diameter [1, 6] | inhibition zone, diameter [1, 7]
20 | Cc1cnc2c(S(=O)(=O)N3CCCCC3C(=O)NNc3ccc(F)cc3)cccc2c1 (stereo not shown) [ZKD-21] |  |  |  |  |  |  |  |  | 60 mm | 48 mm | 53 mm | 64 mm | 68 mm
21 | O=C1C2CCCCN2C(c2ccc(B(O)O)cc2)N1Nc1ccccc1 (stereo not shown) [ZKD-10A] |  |  |  |  |  |  |  |  | 56 mm | 53 mm | 55 mm | 48 mm | 68 mm
22 | Cn1cncc1C(=O)NNc1ccc(F)cc1 [ZBM-30] |  |  |  |  |  |  |  |  | 45 mm | 68 mm | 45 mm | 68 mm | 68 mm
23 | O=C(NNc1ccc(F)cc1)[C@@H]1Cc2ccccc2CN1 [ZSD-54] |  |  |  |  |  |  |  |  | 50 mm | 58 mm | 47 mm | 68 mm | 68 mm
24 | COc1cc([C@@H]2N(Nc3ccccc3)C(=O)C3CCCCN32)ccc1O (stereo partly shown) [ZKD-18A] |  |  |  |  |  |  |  |  | 68 mm | 68 mm | 68 mm | 68 mm | 68 mm
25 | O=C1C(c2ccccc2)C(c2ccc(O)cc2)N2CCC[C@@H]12 (stereo partly shown) [ZXP-10] | < 0% | 0 to 100% |  |  |  |  |  |  |  |  |  |  | 
26 | O=C(NNc1ccc(F)cc1)C1CCCCN1 (stereo not shown) [ZKD-17] |  |  |  |  |  |  |  |  | 67 mm | 68 mm | 36 mm | 68 mm | 68 mm
27 | O=C(NNc1ccc([N+](=O)[O-])cc1)[C@@H]1Cc2ccccc2CN1 [ZSD-15] |  |  |  |  |  |  |  |  | 44 mm | 40 mm | 68 mm | 68 mm | 40 mm
28 | COc1ccc(CC2N(Nc3ccccc3)C(=O)C3CCCCN32)cc1O (single isomer, unassigned) [ZKD-12A] |  |  |  |  |  |  |  |  | 65 mm | 68 mm | 68 mm | 58 mm | 68 mm
29 | COc1ccc([C@H]2N(Nc3ccccc3)C(=O)C3CCCCN32)cc1OC (stereo partly shown) [ZKD-6B] |  |  |  |  |  |  |  |  | 16 mm | 17 mm | 16 mm | 20 mm | 40 mm
30 | COc1ccc(C2N(Nc3ccccc3)C(=O)C3CCCCN32)cc1O (stereo not shown) [ZKD-19B] |  |  |  |  |  |  |  |  | 68 mm | 68 mm | 68 mm | 68 mm | 68 mm
31 | O=C(NNc1ccc(F)cc1)c1ncc[nH]1 [ZBM-28] |  |  |  |  |  |  |  |  | 51 mm | 68 mm | 64 mm | 64 mm | 68 mm
32 | O=C1C2CCCCN2C(c2ccc(O)cc2)N1Nc1ccccc1 (single isomer, unassigned) [ZKD-4A] |  |  |  |  |  |  |  |  | 58 mm | 40 mm | 66 mm | 68 mm | 62 mm
33 | COc1cc(CC2N(Nc3ccccc3)C(=O)C3CCCCN32)ccc1O (single isomer, unassigned) [ZKD-14B] |  |  |  |  |  |  |  |  | 54 mm | 53 mm | 34 mm | 68 mm | 68 mm
34 | O=C(NNc1ccc(F)cc1)c1cc2ccc(Cl)cc2[nH]1 [ZBM-36] |  |  |  |  |  |  |  |  | 30 mm | 58 mm | 21 mm | 68 mm | 68 mm
35 | O=C1C2CCCCN2C(c2ccc(O)cc2)N1Nc1ccccc1 (single isomer, unassigned) [ZKD-4B] |  |  |  |  |  |  |  |  | 68 mm | 68 mm | 68 mm | 68 mm | 68 mm
36 | O=C1C2CCCCN2[C@H](c2ccco2)N1Nc1ccccc1 (stereo partly shown) [ZKD-5A] |  |  |  |  |  |  |  |  | 68 mm | 68 mm | 68 mm | 68 mm | 68 mm
37 | O=C1C2CCCCN2[C@@H](c2ccc(B(O)O)cc2)N1Nc1ccccc1 (stereo partly shown) [ZKD-10B] |  |  |  |  |  |  |  |  | 39 mm | 48 mm | 45 mm | 46 mm | 54 mm
